# Like-named read-outs stand apart in the source and are kept apart here.
# Assays:
# [1] = test system: HCC827GR cells; assay: Annexin V/7-AAD apoptosis, HCC827GR; format: cell-based, human; set-up: Early apoptosis / Total apopt / Dead / Live: unit not given here; conditions: for apoptotic cells (annexin V+): 48 h, background 0.92 %; for Late apoptosis/Dead / Early apoptosis / Total apopt / Dead / Live: HCC827GR
# Method: (§1) HaCaT cells were grown in DMEM, whereas HCC827 and HCC827GR cells were grown in RPMI 1640. All culture media were supplemented with FBS (10 %) and P/S (1 %), and the cells were grown at 37 °C in 5 % CO2.
# Apoptosis was measured using a Muse™ Annexin V & Dead Cell Kit (MCH100105, Merck Millipore). The fluorescent signal was analyzed with a Muse™ Cell Analyzer.
# [2] = test system: HCC827GR cells
# Method: (§2) All culture media were supplemented with FBS (10 %) and P/S (1 %), and the cells were grown at 37 °C in 5 % CO2.
# (§3) The cells were treated with MTT and incubated for 2 h. The supernatants were removed, and the remaining formazan crystals were dissolved in DMSO before absorbance measurement at 570 nm using a Multiscan GO spectrophotometer (Thermo Fisher Scientific, Vantaa, Finland).
# [3] = test system: HaCaT cells
# Method: as §2, §3
# [4] = test system: caspase-3; assay: Immunoblot caspase-3 in HCC827 and HCC827GR cells; format: cell-based, human; conditions: for caspase3 protein Ratio: DBG 0 nM = 1.00
# Method: as §1
# (§4) Cells were lysed in RIPA buffer, and protein concentration was determined using a Bio-Rad DC Protein Assay kit (Bio-Rad, Hercules, CA, USA). Protein samples from the cell lysates were resolved by sodium dodecyl sulfate-polyacrylamide gel electrophoresis and then transferred onto polyvinylidene fluoride membranes. The membranes were blocked with 3 % or 5 % skim milk and then incubated at 4 °C overnight with the indicated primary antibodies, followed by the corresponding horseradish peroxidase-conjugated secondary antibodies at RT for 2 h. Protein bands were visualized using western blotting luminol reagent solution and ImageQuant LAS 500 (GE Healthcare, Uppsala, Sweden). The density of the bands was quantified using ImageJ software (NIH, Bethesda, MD, USA).
# [5] = test system: p-AKT; assay: Immunoblot p-AKT with NAC pretreatment, HCC827 and HCC827GR cells; format: cell-based, human; conditions: for p-AKT protein Ratio: control = 1.00
# Method: as §1, §4
smiles,measurement,setting,value
"COc1ccc(C[C@H]2C(=O)N[C@@H](C)C(=O)N(C)[C@H]3Cc4ccc(cc4)Oc4cc(ccc4O[C@@H]4O[C@H](CO)[C@@H](O)[C@H](O)[C@H]4O)C[C@@H](C(=O)N[C@H](C)C(=O)N[C@@H](C)C(=O)N2C)N(C)C3=O)cc1 [DBG, deoxybouvardin glucoside]",apoptotic cells (annexin V+),[1]; DBG 3 nM,11.08%
same,apoptotic cells (annexin V+),[1]; DBG 6 nM,25.58%
same,apoptotic cells (annexin V+),[1]; DBG 12 nM,42.32%
same,Late apoptosis/Dead,"[1]; DBG 3 nM, mean of 3 samples, untreated 0.23",0.23
same,Early apoptosis,"[1]; DBG 3 nM, mean of 3 samples, untreated 0.68",10.85
same,Total apopt,"[1]; DBG 3 nM, mean of 3 samples, untreated 0.92",11.08
same,Dead,"[1]; DBG 3 nM, mean of 3 samples, untreated 5.53",0.05
same,Live,"[1]; DBG 3 nM, mean of 3 samples, untreated 93.55",88.87
same,Dead,"[1]; DBG 3 nM, replicate 1",0.05
same,Early apoptosis,"[1]; DBG 3 nM, replicate 1",9.50
same,Late apoptosis/Dead,"[1]; DBG 3 nM, replicate 1",0.15
same,Live,"[1]; DBG 3 nM, replicate 1",90.30
same,Total apopt,"[1]; DBG 3 nM, replicate 1",9.65
same,Dead,"[1]; DBG 3 nM, replicate 2",0.05
same,Early apoptosis,"[1]; DBG 3 nM, replicate 2",10.80
same,Late apoptosis/Dead,"[1]; DBG 3 nM, replicate 2",0.25
same,Live,"[1]; DBG 3 nM, replicate 2",88.90
same,Total apopt,"[1]; DBG 3 nM, replicate 2",11.05
same,Dead,"[1]; DBG 3 nM, replicate 3",0.05
same,Early apoptosis,"[1]; DBG 3 nM, replicate 3",12.25
same,Late apoptosis/Dead,"[1]; DBG 3 nM, replicate 3",0.30
same,Live,"[1]; DBG 3 nM, replicate 3",87.40
same,Total apopt,"[1]; DBG 3 nM, replicate 3",12.55
same,Late apoptosis/Dead,"[1]; DBG 6 nM, mean of 3 samples, untreated 0.23",0.50
same,Early apoptosis,"[1]; DBG 6 nM, mean of 3 samples, untreated 0.68",25.08
same,Total apopt,"[1]; DBG 6 nM, mean of 3 samples, untreated 0.92",25.58
same,Dead,"[1]; DBG 6 nM, mean of 3 samples, untreated 5.53",0.10
same,Live,"[1]; DBG 6 nM, mean of 3 samples, untreated 93.55",74.32
same,Dead,"[1]; DBG 6 nM, replicate 1",0.00
same,Early apoptosis,"[1]; DBG 6 nM, replicate 1",24.55
same,Late apoptosis/Dead,"[1]; DBG 6 nM, replicate 1",0.55
same,Live,"[1]; DBG 6 nM, replicate 1",74.90
same,Total apopt,"[1]; DBG 6 nM, replicate 1",25.10
same,Dead,"[1]; DBG 6 nM, replicate 2",0.15
same,Early apoptosis,"[1]; DBG 6 nM, replicate 2",25.60
same,Late apoptosis/Dead,"[1]; DBG 6 nM, replicate 2",0.40
same,Live,"[1]; DBG 6 nM, replicate 2",73.85
same,Total apopt,"[1]; DBG 6 nM, replicate 2",26.00
same,Dead,"[1]; DBG 6 nM, replicate 3",0.15
same,Early apoptosis,"[1]; DBG 6 nM, replicate 3",25.10
same,Late apoptosis/Dead,"[1]; DBG 6 nM, replicate 3",0.55
same,Live,"[1]; DBG 6 nM, replicate 3",74.20
same,Total apopt,"[1]; DBG 6 nM, replicate 3",25.65
same,Late apoptosis/Dead,"[1]; DBG 12 nM, mean of 3 samples, untreated 0.23",10.45
same,Early apoptosis,"[1]; DBG 12 nM, mean of 3 samples, untreated 0.68",31.87
same,Total apopt,"[1]; DBG 12 nM, mean of 3 samples, untreated 0.92",42.32
same,Dead,"[1]; DBG 12 nM, mean of 3 samples, untreated 5.53",0.13
same,Live,"[1]; DBG 12 nM, mean of 3 samples, untreated 93.55",57.55
same,Dead,"[1]; DBG 12 nM, replicate 1",0.15
same,Early apoptosis,"[1]; DBG 12 nM, replicate 1",31.85
same,Late apoptosis/Dead,"[1]; DBG 12 nM, replicate 1",10.85
same,Live,"[1]; DBG 12 nM, replicate 1",57.15
same,Total apopt,"[1]; DBG 12 nM, replicate 1",42.70
same,Dead,"[1]; DBG 12 nM, replicate 2",0.15
same,Early apoptosis,"[1]; DBG 12 nM, replicate 2",31.65
same,Late apoptosis/Dead,"[1]; DBG 12 nM, replicate 2",10.50
same,Live,"[1]; DBG 12 nM, replicate 2",57.70
same,Total apopt,"[1]; DBG 12 nM, replicate 2",42.15
same,Dead,"[1]; DBG 12 nM, replicate 3",0.10
same,Early apoptosis,"[1]; DBG 12 nM, replicate 3",32.10
same,Late apoptosis/Dead,"[1]; DBG 12 nM, replicate 3",10.00
same,Live,"[1]; DBG 12 nM, replicate 3",57.80
same,Total apopt,"[1]; DBG 12 nM, replicate 3",42.10
same,cell viability,"[2]; 24 h, DBG 3 nM, replicate 1",88.10%
same,cell viability,"[2]; 24 h, DBG 3 nM, replicate 2",92.63%
same,cell viability,"[2]; 24 h, DBG 3 nM, replicate 3",91.95%
same,cell viability,"[2]; 24 h, DBG 6 nM, replicate 1",81.14%
same,cell viability,"[2]; 24 h, DBG 6 nM, replicate 2",86.21%
same,cell viability,"[2]; 24 h, DBG 6 nM, replicate 3",84.35%
same,cell viability,"[2]; 24 h, DBG 12 nM, replicate 1",77.73%
same,cell viability,"[2]; 24 h, DBG 12 nM, replicate 2",74.83%
same,cell viability,"[2]; 24 h, DBG 12 nM, replicate 3",73.57%
same,IC50,[2]; 48 h,8.65 nM
same,cell viability,"[2]; 48 h, DBG 3 nM, replicate 1",81.02%
same,cell viability,"[2]; 48 h, DBG 3 nM, replicate 2",78.86%
same,cell viability,"[2]; 48 h, DBG 3 nM, replicate 3",79.86%
same,cell viability,"[2]; 48 h, DBG 6 nM, replicate 1",59.60%
same,cell viability,"[2]; 48 h, DBG 6 nM, replicate 2",58.31%
same,cell viability,"[2]; 48 h, DBG 6 nM, replicate 3",59.16%
same,cell viability,"[2]; 48 h, DBG 12 nM, replicate 1",38.12%
same,cell viability,"[2]; 48 h, DBG 12 nM, replicate 2",38.18%
same,cell viability,"[2]; 48 h, DBG 12 nM, replicate 3",39.51%
same,"viability, in words","[2]; DBG 3, 6, 12 nM",suppressed the viability
same,cell viability,"[3]; 24 h, DBG 3 nM, replicate 1",103.33%
same,cell viability,"[3]; 24 h, DBG 3 nM, replicate 2",102.45%
same,cell viability,"[3]; 24 h, DBG 3 nM, replicate 3",101.31%
same,cell viability,"[3]; 24 h, DBG 6 nM, replicate 1",101.02%
same,cell viability,"[3]; 24 h, DBG 6 nM, replicate 2",102.90%
same,cell viability,"[3]; 24 h, DBG 6 nM, replicate 3",101.77%
same,cell viability,"[3]; 24 h, DBG 12 nM, replicate 1",101.52%
same,cell viability,"[3]; 24 h, DBG 12 nM, replicate 2",102.50%
same,cell viability,"[3]; 24 h, DBG 12 nM, replicate 3",100.11%
same,cell viability,"[3]; 48 h, DBG 3 nM, replicate 1",101.48%
same,cell viability,"[3]; 48 h, DBG 3 nM, replicate 2",104.66%
same,cell viability,"[3]; 48 h, DBG 3 nM, replicate 3",100.09%
same,cell viability,"[3]; 48 h, DBG 6 nM, replicate 1",97.99%
same,cell viability,"[3]; 48 h, DBG 6 nM, replicate 2",98.42%
same,cell viability,"[3]; 48 h, DBG 6 nM, replicate 3",101.29%
same,cell viability,"[3]; 48 h, DBG 12 nM, replicate 1",98.16%
same,cell viability,"[3]; 48 h, DBG 12 nM, replicate 2",94.89%
same,cell viability,"[3]; 48 h, DBG 12 nM, replicate 3",94.68%
same,"viability, in words","[3]; DBG 3, 6, 12 nM",did not affect
same,caspase3 protein/actin,"[4]; HCC827, DBG 3 nM, DBG 0 nM 0.88",0.62
same,caspase3 protein Ratio,"[4]; HCC827, DBG 3 nM",0.71
same,caspase3 protein/actin,"[4]; HCC827, DBG 6 nM, DBG 0 nM 0.88",0.55
same,caspase3 protein Ratio,"[4]; HCC827, DBG 6 nM",0.62
same,caspase3 protein/actin,"[4]; HCC827, DBG 12 nM, DBG 0 nM 0.88",0.14
same,caspase3 protein Ratio,"[4]; HCC827, DBG 12 nM",0.16
same,caspase3 protein/actin,"[4]; HCC827GR, DBG 3 nM, DBG 0 nM 0.55",0.60
same,caspase3 protein Ratio,"[4]; HCC827GR, DBG 3 nM",1.11
same,caspase3 protein/actin,"[4]; HCC827GR, DBG 6 nM, DBG 0 nM 0.55",0.48
same,caspase3 protein Ratio,"[4]; HCC827GR, DBG 6 nM",0.87
same,caspase3 protein/actin,"[4]; HCC827GR, DBG 12 nM, DBG 0 nM 0.55",0.30
same,caspase3 protein Ratio,"[4]; HCC827GR, DBG 12 nM",0.54
same,level of whole caspase-3,"[4]; HCC827 and HCC827GR, DBG",decreased
same,p-AKT protein/actin,"[5]; HCC827, DBG 12 nM, control 1.00",0.39
same,p-AKT protein Ratio,"[5]; HCC827, DBG 12 nM",0.39
same,p-AKT protein/actin,"[5]; HCC827, NAC 4 mM + DBG 12 nM, control 1.00",0.42
same,p-AKT protein Ratio,"[5]; HCC827, NAC 4 mM + DBG 12 nM",0.42
same,p-AKT protein/actin,"[5]; HCC827GR, DBG 12 nM, control 1.04",0.30
same,p-AKT protein Ratio,"[5]; HCC827GR, DBG 12 nM",0.29
same,p-AKT protein/actin,"[5]; HCC827GR, NAC 4 mM + DBG 12 nM, control 1.04",0.17
same,p-AKT protein Ratio,"[5]; HCC827GR, NAC 4 mM + DBG 12 nM",0.16
same,DBG-decreased phosphorylation of AKT with NAC,"[5]; NAC 4 mM pretreatment, DBG 48 h",did not change

# — PMC11579512, “Deoxybouvardin-glucoside induces apoptosis in non-small cell lung cancer cells by targeting EGFR/MET and AKT signaling pathway” (EXCLI Journal, 2024)
